Data set [1] deals with S. pneumoniae 9605 (PRSP). In words: In vivo antibacterial activity, intraperitoneal infection of mice. The settings on record: Streptococcus pneumoniae, 168 h; male ddY mice, i.p. S. pneumoniae 9605 (PRSP), single subcutaneous treatment, Probit method from survival rates 7 days after infection. The method, then:
Male ddY mice of 4 weeks old (purchased from SLC Japan) were intraperitoneally inoculated with S. pneumoniae 9605 (PRSP) at a volume of 0.2 ml (containing 5% mucin, 1-5×10^3 colony forming unit (cfu)/mouse). Immediately after the mice were infected, they were subcutaneously treated with the test compound singly at a volume of 0.1 ml. Seven mice were used per group. A solution of the test compound prepared by 2-step dilution was used for the experiment. ED50 values of the compounds were calculated by the Probit method from survival rates 7 days after infection.

A short description of data set [2]: Pharmacokinetics, plasma concentration by bioassay after subcutaneous injection. In kind it is in vivo. The settings on record: mouse, sc, mice (ddY, male), 20 mg/kg subcutaneous; for AUC: read-out: AUCall (area under the concentration-time curve in plasma); for Cmax: read-out: Cmax (maximal plasma concentration); for half-life: read-out: T1/2 (half-life in plasma concentration) (converted). The method, then: The compounds of the present invention compound (20 mg/kg) was subcutaneously injected to mice (n=3, ddY, male, purchased from SLC Japan). The plasma concentration of the compound was determined by a bioassay method at 5, 15, and 30 min, and 1, 1.5, and 2 hr after administration. In the Table, Cmax, T1/2, and AUCall indicate the maximal plasma concentration, half-life in plasma concentration, and area under the concentration-time curve in plasma of the compound, respectively.

Data set [3] concerns Haemophilis influenzae strain 9787 (a strain producing β-lactamase). Description: In vitro antibacterial activity, agar plate dilution method. Type of data set: cell-based. The settings on record: C: Haemophilis influenzae strain 9787 (β-lactamase producing); agar plate dilution; read-out: Minimum Concentration to Inhibit Growth of the Employed Bacteria C. On the procedure: (§1) To assess the antibacterial activities of the compounds, the minimum concentrations (μg/ml) of the compounds to inhibit growth of various pathogenic bacteria were determined by agar plate dilution method. In this Table, the employed bacteria A, B, and C were as follow: • A: Staphylococcus aureus • B: Streptococcus pneumoniae • C: Haemophilis influenzae strain 9787 (a strain producing β-lactamase)

A further data set relates to Streptococcus pneumoniae. Described as above. Type of data set: cell-based. The settings on record: B: Streptococcus pneumoniae; agar plate dilution; read-out: Minimum Concentration to Inhibit Growth of the Employed Bacteria B. The method, then:
as §1

In another data set the test system is Staphylococcus aureus. The data set is described as above. The conditions noted are these: A: Staphylococcus aureus; agar plate dilution; read-out: Minimum Concentration to Inhibit Growth of the Employed Bacteria A. Type of data set: cell-based. On the procedure: as §1

Structures are written as SMILES. ≈ marks a conversion by molar mass, not a printed value. A value given as a limit tells only on which side of the number the result lay.

Broadly, the ED50 is the dose at which the effect has come halfway, by size or by number of responders. In data set [1], `C[C@@H](O)[C@H]1C(=O)N2C(C(=O)O)=C(SC3CN(c4nc(C(=O)N[C@H]5CCNC5)cs4)C3)[C@H](C)[C@H]12` [Example 57, (1R,5S,6S)-2-{1-[4-((3S)-pyrrolidin-3-ylcarbamoyl)-1,3-thiazol-2-yl]azetidin-3-yl}thio-6-[(R)-1-hydroxyethyl]-1-methylcarbapen-2-em-3-carboxylic acid] came in with an ED50 of 0.855 mg/kg. The AUC in data set [2] stood at 45300 ng·h/mL. The Cmax in data set [2] came to 48200 ng/mL. Also, the half-life in data set [2] is 22.8 min. Also, the MIC in data set [3] was found to be 0.2 µg/mL (≈ 0.405 µM); in the data set with Streptococcus pneumoniae, 0.2 µg/mL (≈ 0.405 µM); with Staphylococcus aureus, 0.025 µg/mL (≈ 0.0506 µM).

The molecule `C[C@@H](O)[C@H]1C(=O)N2C(C(=O)O)=C(SC3CN(c4nc(C(=O)N[C@@H]5CCNC5)cs4)C3)[C@H](C)[C@H]12` [Example 58, (1R,5S,6S)-2-{1-[4-((3R)-pyrrolidin-3-ylcarbamoyl)-1,3-thiazol-2-yl]azetidin-3-yl}thio-6-[(R)-1-hydroxyethyl]-1-methylcarbapen-2-em-3-carboxylic acid] displayed an ED50 in data set [1] of 0.899 mg/kg. In data set [2], the AUC was 47400 ng·h/mL, the Cmax came to 63900 ng/mL and the half-life is 24.6 min. In addition, in data set [3], the MIC was determined as 0.2 µg/mL (≈ 0.405 µM). The MIC in the data set on Streptococcus pneumoniae came to 0.2 µg/mL (≈ 0.405 µM). Further, in the data set with Staphylococcus aureus, the MIC was ≤ 0.012 µg/mL.

`C[C@@H](O)[C@H]1C(=O)N2C(C(=O)O)=C(SC3CN(c4nc(C(=O)NC5CNC5)cs4)C3)[C@H](C)[C@H]12` [Example 59, (1R,5S,6S)-2-{1-[4-(azetidin-3-ylcarbamoyl)-1,3-thiazol-2-yl]azetidin-3-yl}thio-6-[(R)-1-hydroxyethyl]-1-methylcarbapen-2-em-3-carboxylic acid] returned an ED50 in data set [1] of 1.08 mg/kg. Also, the MIC in data set [3] is 0.2 µg/mL (≈ 0.417 µM); in the data set with Streptococcus pneumoniae, 0.2 µg/mL (≈ 0.417 µM); with Staphylococcus aureus, ≤ 0.012 µg/mL.

The molecule `C[C@@H](O)[C@H]1C(=O)N2C(C(=O)O)=C(SC3CN(c4nc(C(=O)N5CCNCC5)cs4)C3)[C@H](C)[C@H]12` [Example 60, (1R,5S,6S)-2-{1-[4-(piperazine-1-carbonyl)-1,3-thiazol-2-yl]azetidin-3-yl}thio-6-[(R)-1-hydroxyethyl]-1-methylcarbapen-2-em-3-carboxylic acid] showed a median effective dose (ED50) in data set [1] of 1.41 mg/kg. In addition, the AUC in data set [2] turned out to be 27900 ng·h/mL. Also, in data set [2], the Cmax was 46100 ng/mL. Besides, the half-life in data set [2] is 18 min. In addition, the MIC in data set [3] amounted to 0.39 µg/mL (≈ 0.79 µM); in the data set with Streptococcus pneumoniae it was 0.39 µg/mL (≈ 0.79 µM); in the data set with Staphylococcus aureus, 0.025 µg/mL (≈ 0.0506 µM).

Regarding `C[C@@H](O)[C@H]1C(=O)N2C(C(=O)O)=C(SC3CN(c4nc(C(=O)NCCN)cs4)C3)[C@H](C)[C@H]12` [Example 61, (1R,5S,6S)-2-{1-[4-((2-aminoethyl)carbamoyl)-1,3-thiazol-2-yl]azetidin-3-yl}thio-6-[(R)-1-hydroxyethyl]-1-methylcarbapen-2-em-3-carboxylic acid], in data set [1], it took a dose of 1.79 mg/kg to reach the 50% effect level (ED50). In addition, the values for the MIC (in data set [3]; in the data set on Streptococcus pneumoniae; with Staphylococcus aureus) were 0.39 µg/mL (≈ 0.834 µM), 0.2 µg/mL (≈ 0.428 µM) and 0.025 µg/mL (≈ 0.0535 µM), respectively.

The molecule `C[C@@H](O)[C@H]1C(=O)N2C(C(=O)O)=C(SC3CN(c4nc(CN)cs4)C3)[C@H](C)[C@H]12` [Example 67, (1R,5S,6S)-2-[1-(4-aminomethyl-1,3-thiazol-2-yl)azetidin-3-yl]thio-6-[(R)-1-hydroxyethyl]-1-methylcarbapen-2-em-3-carboxylic acid] gave an ED50 in data set [1] of 1.6 mg/kg. Also, in data set [2], the AUC is 34100 ng·h/mL, the Cmax is 40200 ng/mL and the half-life is 27 min. The MIC in data set [3] came to 0.2 µg/mL (≈ 0.487 µM). Moreover, the MIC in the data set with Streptococcus pneumoniae is 0.39 µg/mL (≈ 0.95 µM). Also, the MIC in the data set with Staphylococcus aureus is ≤ 0.012 µg/mL.

In data set [1], `C[C@@H](O)[C@H]1C(=O)N2C(C(=O)[O-])=C(SC3CN(c4nc(C(=O)N5CCOCC5)co4)C3)[C@H](C)[C@H]12.[Na+]` [Example 76, (1R,5S,6S)-2-[1-(4-morpholinocarbonyl-1,3-oxazol-2-yl)azetidin-3-yl]thio-6-[(R)-1-hydroxyethyl]-1-methylcarbapen-2-em-3-carboxylic acid sodium salt] had an ED50 of 0.534 mg/kg. In data set [2], the AUC was determined as 27900 ng·h/mL, the Cmax stood at 52800 ng/mL and the half-life is 11.4 min. In addition, the MIC in data set [3] amounted to 0.39 µg/mL. For the same molecule, the MIC with Streptococcus pneumoniae was determined as 0.2 µg/mL. The MIC with Staphylococcus aureus came out at 0.05 µg/mL.

For the origin of these results see patent US7001897B2, “1-methylcarbapenem derivatives” (Sankyo Company, Limited, priority 2000, dated 2006).
